Results as given in patent US20080145433A1 (GILEAD COLORADO, INC., priority 2006, published 2008).
Like-named read-outs stand apart in the source and are kept apart here.

Legend:
[1] = biological target: T1, ETA (Homo sapiens, UniProt P25101); test: ETA receptor affinity reported by Riechers et al (1996); format: binding; conditions: calculated from Riechers et al (1996) data
T1 sequence (P25101 21-427): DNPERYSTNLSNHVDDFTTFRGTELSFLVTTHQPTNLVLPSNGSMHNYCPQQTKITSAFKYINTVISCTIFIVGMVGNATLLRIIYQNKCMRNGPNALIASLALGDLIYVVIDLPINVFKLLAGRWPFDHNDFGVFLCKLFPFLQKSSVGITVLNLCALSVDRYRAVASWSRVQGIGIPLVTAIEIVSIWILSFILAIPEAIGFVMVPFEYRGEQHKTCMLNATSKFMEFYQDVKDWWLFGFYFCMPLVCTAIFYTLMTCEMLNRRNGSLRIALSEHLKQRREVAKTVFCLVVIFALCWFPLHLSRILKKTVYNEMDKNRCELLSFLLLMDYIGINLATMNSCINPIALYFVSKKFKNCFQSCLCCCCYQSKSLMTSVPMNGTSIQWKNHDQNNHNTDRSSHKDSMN

[2] = biological target: T2, ETB (Homo sapiens, UniProt P24530); conditions: Riechers et al (1996); read-out: affinity for ETB (KiB); cited from earlier work
T2 sequence (P24530 27-442): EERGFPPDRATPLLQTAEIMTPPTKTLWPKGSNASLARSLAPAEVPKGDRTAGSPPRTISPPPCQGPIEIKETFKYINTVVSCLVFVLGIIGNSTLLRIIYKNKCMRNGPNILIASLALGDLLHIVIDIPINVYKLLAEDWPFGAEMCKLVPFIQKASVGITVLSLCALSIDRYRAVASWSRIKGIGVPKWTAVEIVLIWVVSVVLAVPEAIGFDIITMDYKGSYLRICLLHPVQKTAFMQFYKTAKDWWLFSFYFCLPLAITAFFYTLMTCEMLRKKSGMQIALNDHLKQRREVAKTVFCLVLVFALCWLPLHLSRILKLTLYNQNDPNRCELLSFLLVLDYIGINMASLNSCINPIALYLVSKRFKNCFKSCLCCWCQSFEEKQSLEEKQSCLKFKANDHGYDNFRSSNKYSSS

[3] = biological target: T1, ETA; conditions: Riechers et al (1996); read-out: affinity for ETA (KiA); cited from earlier work
[4] = biological target: T2, ETB; test: 125[I]-endothelin-1 receptor binding cold ligand competition curves in human myocardial membranes (ETB); parameters: human myocardial membranes prepared from failing and non-failing left ventricles; from tissue; host or cells: human left ventricular myocardium (failing and non-failing), membranes; conditions: 10 μM Gpp(NH)p, 4-hour incubation, steady-state binding, mean of 8 assays
[5] = PK of darusentan tablets, single oral dose, congestive heart failure patients (Example 3); format: in vivo, human; conditions: CHF patients, single oral doses 10-300 mg
From the text: This was a multi-center, prospective, uncontrolled clinical trial. […] At least 12 patients received each dose, in addition to their normal medication for CHF.
Arithmetic means and standard deviations of Cmax, Tmax and AUC, based on individual values of these parameters calculated by standard PK methods, are presented in Table 3. As this was a single dose study, Cmin was not determined.

[6] = published values, Boss et al. (2001); cited from earlier work
[7] = biological target: T1, ETA; test: 125[I]-endothelin-1 receptor binding cold ligand competition curves in human myocardial membranes (ETA); parameters: human myocardial membranes prepared from failing and non-failing left ventricles; from tissue; host or cells: human left ventricular myocardium (failing and non-failing), membranes; conditions: mean of 8 assays
[8] = biological target: T1, ETA; conditions: Lip (2001); cited from earlier work

| SMILES | ETA/ETB selectivity (KiB/KiA) [1] | Ki [2] [nM] | Ki [3] [nM] | Ki [4] [nM] | Pharmacokinetics: dose dependence of Cmax and AUC [5] | T1/2 [6] [h] | Ki ([7]; 10 μM Gpp(NH)p, 4-hour incubation, steady-state binding) [nM] | ETA selectivity (fold) [7] [fold] | ETA/ETB selectivity [8] |
| --- | --- | --- | --- | --- | --- | --- | --- | --- | --- |
| COc1cc(OC)nc(OC(C(=O)O)C(OC)(c2ccccc2)c2ccccc2)n1 (racemic) [racemate, 2-(4,6-dimethoxypyrimidin-2-yloxy)-3-methoxy-3,3-diphenylpropionic acid] | about 62 | 371 | 6 | – | – | – | – | – | – |
| COc1cc(OC)nc(O[C@H](C(=O)O)C(OC)(c2ccccc2)c2ccccc2)n1 [darusentan, (+)-(S)-2-(4,6-dimethoxypyrimidin-2-yloxy)-3-methoxy-3,3-diphenylpropionic acid] | – | – | 3 | 216 ± 85 | appeared to be linear | 10 to 12 | 0.178 ± 0.055 | 1181 ± 148 | about 160 |
| COc1cc(OC)nc(O[C@@H](C(=O)O)C(OC)(c2ccccc2)c2ccccc2)n1 [less potent enantiomer] | – | – | 150 | – | – | – | – | – | – |
